Laboratory results from patent publication US9995734B2, “Human T cell line assay for evaluating the immunologic identity of glatiramer acetate preparations” (Mylan Inc., priority 2013, dated 2018).

Assays:
Assay type in all cases: cell-based, human
Donor 4 COP T-Cell Lines = assay: ATP proliferation assay (CellTiter Glo), Donor 4 COP T-cell lines, incl. reactivity to non-canonical GA peptides; details: for luminescent ATP proliferation assay, Mean RLU: 205-1H7; for luminescent ATP proliferation assay, Mean RLU / Mean RLU: Day 59, 4 days incubation; for Mean, ATP proliferation assay: Cell Line 205-1F4; for Mean RLU: T-Cell Line 205-1H11
[1] = test system: Donor 1 GMA Expanded T-Cell Lines (222-AG11, 222-AG12, 222-BA11, 222-BC11); assay: ATP proliferation assay (CellTiter Glo), Donor 1 GMA expanded T-cell lines, incl. reactivity to non-canonical GA peptides; details: T-cell line 222-AG12, autologous B-LCL
Method: Proliferation was evaluated by measuring ATP content using a luminescent method (CellTiter Glo Luminescent Cell Viability Assay, Promega, Madison, Wis., cat. #G7571) or by measuring BrdU uptake by ELISA (Millipore cat. #2752), in both cases following kit instructions. A split well format was used. Cells in each well were resuspended and 65 μl transferred to the wells of each of two new U-bottom 96-well plates, to generate the replicate plates. For the initial screening, the original 96-well plate received mitomycin-treated autologous PBMC as APC plus 10 μg/mL antigen (GA). A first replicate plate received 100 μl., mitomycin-treated PBMC alone (2×10^5), and no antigen, and a second replicate plate received 100 μL mitomycin-treated PBMC plus GA at a final concentration of 10 μg/mL. Therefore, all three plates received autologous APC (PBMC) treated with mitomycin C to prevent cell division. […] The latter two plates were incubated for 3 days at 37° C., 6% CO2 before adding CellTiter Glo or BrdU and measuring signal. IL-2 was added at 10 U/mL to the original 96-well plate for expansion on Day 17. For subsequent screenings, mitomycin-treated EBV-transformed autologous B-LCL (2×10^5 to 5×10^5 cells/mL) were used as APC.
On Day 24, cells from the wells corresponding to the eight presumptive GA-specific human T-cell lines listed in Table 4 were transferred to a 24-well plate and expanded by stimulating with 10 μg/mL GMA and mitomycin-treated autologous PBMC as APC (3×10^6 per well, i.e., 1.5×10^6/mL). On Day 32 four of the eight lines, 222-BA11, 222-BC11, 222-AG11, and 222-AG12, were stimulated with 0, 1, 10 and 100 μg/mL GMA and tested in a 96-well plate for a proliferative response to GMA using an ATP assay, again using autologous PBMC as APC (2×10^5 per well, i.e., 1×10^6/mL). […] FIGS. 2A and B show the results of the ATP proliferation assay carried out using 222-AG12, 222-BC11, 222-AG11, and 222-BA11 at Day 35 (control=no antigen). FIGS. 3A-C compare the results of ATP proliferation assays carried out after stimulation with varying concentrations of GMA or Copaxone as indicated, using cell lines 222-BA11, 222-BC11, and 222-AG12.
Donor 1 GMA T-cell line 222-AG12 was assayed for proliferation following stimulation with 0, 1, 10, and 30 μg/mL each of peptides GLT 631, GAT 631, GAT 111, LT 11, GT 11, GL 14, COP, and GMA, at a T-cell concentration of 2×10^5 cells/mL, in the presence of mitomycin C-treated autologous B-LCL. Line 222-AG12 was assayed after 3 rounds of restimulation (4 total stimulations). Proliferation was measured by luminescent ATP assay.

Donor 3 GMA T-Cell Lines = assay: ATP proliferation assay (CellTiter Glo), Donor 3 GMA T-cell lines, incl. reactivity to non-canonical GA peptides; details: for Proliferation (luminescent ATP assay), Mean: T-cell line 165-05G, Day 50 of culturing, No Antigen Value 2149

glatiramer acetate [COP]
luminescent ATP proliferation assay, Mean RLU (Donor 4 COP T-Cell Lines; 1 μg/mL, 0 μg/mL 3382): 13131 RLU
luminescent ATP proliferation assay, Mean RLU (Donor 4 COP T-Cell Lines; 10 μg/mL, 0 μg/mL 3382): 175652 RLU
luminescent ATP proliferation assay, Mean RLU (Donor 4 COP T-Cell Lines; 30 μg/mL, 0 μg/mL 3382): 190750 RLU
Mean, ATP proliferation assay (Donor 4 COP T-Cell Lines; Day 50, 1 μg/mL): 47254
Mean, ATP proliferation assay (Donor 4 COP T-Cell Lines; Day 50, 3 μg/mL): 169021
Mean, ATP proliferation assay (Donor 4 COP T-Cell Lines; Day 50, 10 μg/mL): 213196
Mean, ATP proliferation assay (Donor 4 COP T-Cell Lines; Day 58, 3 μg/mL): 21031
Mean, ATP proliferation assay (Donor 4 COP T-Cell Lines; Day 58, 10 μg/mL): 31423
Mean, ATP proliferation assay (Donor 4 COP T-Cell Lines; Day 58, 30 μg/mL): 31323
Mean, ATP proliferation assay (Donor 4 COP T-Cell Lines; Day 58, 100 μg/mL): 31188
Mean RLU (Donor 4 COP T-Cell Lines; 1 μg/mL COP): 12243 RLU
Mean RLU (Donor 4 COP T-Cell Lines; 10 μg/mL COP): 147464 RLU
Mean RLU (Donor 4 COP T-Cell Lines; 30 μg/mL COP): 112673 RLU
Reactivity (proliferation), Mean (Donor 4 COP T-Cell Lines; T-cell line 205-1B4, 1 μg/mL antigen, No Antigen 830): 1522 RLU
Reactivity (proliferation), Mean (Donor 4 COP T-Cell Lines; T-cell line 205-1B4, 3 μg/mL antigen, No Antigen 830): 5501 RLU
Reactivity (proliferation), Mean (Donor 4 COP T-Cell Lines; T-cell line 205-1B4, 10 μg/mL antigen, No Antigen 830): 11273 RLU
COP 10 μg/mL, ATP proliferation assay (Donor 4 COP T-Cell Lines; T-cell line 205-1B4, Day 13, 10 μg/mL): 84937 RLU
COP 10 μg/mL, ATP proliferation assay (Donor 4 COP T-Cell Lines; T-cell line 205-1B7, Day 13, 10 μg/mL): 74147 RLU
Reactivity (proliferation), Mean (Donor 4 COP T-Cell Lines; T-cell line 205-1C4, 1 μg/mL antigen, No Antigen 4464): 8859 RLU
Reactivity (proliferation), Mean (Donor 4 COP T-Cell Lines; T-cell line 205-1C4, 3 μg/mL antigen, No Antigen 4464): 26612 RLU
Reactivity (proliferation), Mean (Donor 4 COP T-Cell Lines; T-cell line 205-1C4, 10 μg/mL antigen, No Antigen 4464): 41287 RLU
COP 10 μg/mL, ATP proliferation assay (Donor 4 COP T-Cell Lines; T-cell line 205-1C4, Day 13, 10 μg/mL): 69861 RLU
COP 10 μg/mL, ATP proliferation assay (Donor 4 COP T-Cell Lines; T-cell line 205-1D1, Day 13, 10 μg/mL): 63419 RLU
COP 10 μg/mL, ATP proliferation assay (Donor 4 COP T-Cell Lines; T-cell line 205-1E1, Day 13, 10 μg/mL): 44198 RLU
COP 10 μg/mL, ATP proliferation assay (Donor 4 COP T-Cell Lines; T-cell line 205-1F2, Day 13, 10 μg/mL): 71947 RLU
COP 10 μg/mL, ATP proliferation assay (Donor 4 COP T-Cell Lines; T-cell line 205-1F4, Day 13, 10 μg/mL): 33143 RLU
Proliferation (luminescent ATP assay), Mean (Donor 4 COP T-Cell Lines; T-cell line 205-1F4, Day 71, 1 μg/mL antigen, autologous B-LCL): 47254
Proliferation (luminescent ATP assay), Mean (Donor 4 COP T-Cell Lines; T-cell line 205-1F4, Day 71, 3 μg/mL antigen, autologous B-LCL): 169021
Proliferation (luminescent ATP assay), Mean (Donor 4 COP T-Cell Lines; T-cell line 205-1F4, Day 71, 10 μg/mL antigen, autologous B-LCL): 213196
COP 10 μg/mL, ATP proliferation assay (Donor 4 COP T-Cell Lines; T-cell line 205-1G3, Day 13, 10 μg/mL): 54211 RLU
COP 10 μg/mL, ATP proliferation assay (Donor 4 COP T-Cell Lines; T-cell line 205-1H1, Day 13, 10 μg/mL): 29824 RLU
Reactivity (proliferation), Mean (Donor 4 COP T-Cell Lines; T-cell line 205-1H3, 1 μg/mL antigen, 0 μg/mL 4121.0): 32122.0
Reactivity (proliferation), Mean (Donor 4 COP T-Cell Lines; T-cell line 205-1H3, 3 μg/mL antigen, 0 μg/mL 4121.0): 49585.0
Reactivity (proliferation), Mean (Donor 4 COP T-Cell Lines; T-cell line 205-1H3, 10 μg/mL antigen, 0 μg/mL 4121.0): 60878.3
COP 10 μg/mL, ATP proliferation assay (Donor 4 COP T-Cell Lines; T-cell line 205-1H3, Day 13, 10 μg/mL): 55518 RLU
COP 10 μg/mL, ATP proliferation assay (Donor 4 COP T-Cell Lines; T-cell line 205-1H4, Day 13, 10 μg/mL): 50307 RLU
Reactivity (proliferation), Mean (Donor 4 COP T-Cell Lines; T-cell line 205-1H5, 1 μg/mL antigen, No Antigen 749): 2375 RLU
Reactivity (proliferation), Mean (Donor 4 COP T-Cell Lines; T-cell line 205-1H5, 3 μg/mL antigen, No Antigen 749): 7182 RLU
Reactivity (proliferation), Mean (Donor 4 COP T-Cell Lines; T-cell line 205-1H5, 10 μg/mL antigen, No Antigen 749): 8580 RLU
COP 10 μg/mL, ATP proliferation assay (Donor 4 COP T-Cell Lines; T-cell line 205-1H5, Day 13, 10 μg/mL): 57608 RLU
Proliferation (luminescent ATP assay), Mean (Donor 4 COP T-Cell Lines; T-cell line 205-1H7, 1μg/mL antigen, after seven stimulations, 0 μg/mL 3382): 13131 RLU
Proliferation (luminescent ATP assay), Mean (Donor 4 COP T-Cell Lines; T-cell line 205-1H7, 10 μg/mL antigen, after seven stimulations, 0 μg/mL 3382): 175652 RLU
Proliferation (luminescent ATP assay), Mean (Donor 4 COP T-Cell Lines; T-cell line 205-1H7, 30 μg/mL antigen, after seven stimulations, 0 μg/mL 3382): 190750 RLU
COP 10 μg/mL, ATP proliferation assay (Donor 4 COP T-Cell Lines; T-cell line 205-1H7, Day 13, 10 μg/mL): 64436 RLU
COP 10 μg/mL, ATP proliferation assay (Donor 4 COP T-Cell Lines; T-cell line 205-1H9, Day 13, 10 μg/mL): 52972 RLU
Reactivity (proliferation), Mean (Donor 4 COP T-Cell Lines; T-cell line 205-1H11, 1 μg/mL antigen, 0 μg/mL 6941): 12243 RLU
Reactivity (proliferation), Mean (Donor 4 COP T-Cell Lines; T-cell line 205-1H11, 10 μg/mL antigen, 0 μg/mL 6941): 147464 RLU
Reactivity (proliferation), Mean (Donor 4 COP T-Cell Lines; T-cell line 205-1H11, 30 μg/mL antigen, 0 μg/mL 6941): 112673 RLU
COP 10 μg/mL, ATP proliferation assay (Donor 4 COP T-Cell Lines; T-cell line 205-1H11, Day 13, 10 μg/mL): 54232 RLU
ATP ratio (COP stimulated:unstimulated control) (Donor 4 COP T-Cell Lines; fifteen Donor 4 wells, Day 13, 10 μg/mL (Table 26)): two or greater
Proliferation (luminescent ATP assay), Mean ([1]; 1 ug/mL antigen): 10056 RLU
Proliferation (luminescent ATP assay), Mean ([1]; 10 ug/mL antigen): 233083 RLU
Proliferation (luminescent ATP assay), Mean ([1]; 30 ug/mL antigen): 227055 RLU
response in proliferation assay (Donor 3 GMA T-Cell Lines; 165-B5G, 165-D8G, 165-E7G, 165-F5G, Day 56, 0, 1, 5, 10, 100 μg/mL, GMA and COP responses comparable): responded well
Proliferation (luminescent ATP assay), Mean (Donor 3 GMA T-Cell Lines; 1 μg/mL antigen): 6791 RLU
Proliferation (luminescent ATP assay), Mean (Donor 3 GMA T-Cell Lines; 3 μg/mL antigen): 42584 RLU
Proliferation (luminescent ATP assay), Mean (Donor 3 GMA T-Cell Lines; 10 μg/mL antigen): 56893 RLU
Proliferation (luminescent ATP assay), Mean (Donor 3 GMA T-Cell Lines; 30 μg/mL antigen): 55001 RLU
Mean, ATP proliferation assay (Donor 3 GMA T-Cell Lines; T-cell line 165-B2G, 1 μg/mL, Day 40): 3779
